Source: patent publication US12458647B2, “Macrocyclic derivative and use thereof” (Guangzhou Joyo Pharmatech Co., Ltd., priority 2022, dated 2025)

Experiments:
[1] = Pharmacokinetic study in Beagle dogs; type: in vivo; settings: male Beagle dogs; for AUC0-last / Cl / T1/2 / Vd / Cmax / TMax: whole blood
Procedure: To evaluate the pharmacokinetic behavior of the compounds of the present disclosure in male Beagle dogs.
The compounds to be tested were dissolved in the vehicle (5% DMSO/10% solutol/85% water). Four male beagle dogs were divided into 2 groups of 2. Group 1 animals were administered a single intravenous bolus injection (i.v.) of the compounds at a dose of 1 mg/kg. Group 2 animals were administered a single dose of the compounds by gavage (p.o.) at a dose of 5 mg/kg. Whole blood samples were collected at 0.083 (intravenous bolus group only), 0.25, 0.5, 1, 2, 4, 8 and 24 hours after dosing. The LC-MS/MS method was used to determine the concentration of the test compound in whole blood samples.

RKN cell line = assay: In vitro cell proliferation experiment (5 days), RKN; type: cell-based; settings: read-out: Inhibitory Activity IC50
Procedure: (§1) RPMI 1640 medium, DMEM, Ham's F12 medium, F12K medium, IMDM and penicillin/streptomycin antibiotics were purchased from Gibco, fetal bovine serum was purchased from Hyclone, Envision multilabel plate reader (PerkinElmer). […]
(§2) The test compound was diluted by 5-fold to 8 concentrations with a pipette, i.e., from 2 mM to 25.6 nM, and replicate wells were set up for the experiment. […] Another cell plate was prepared, and the signal value was read as the maximum value (the maximum value in the following equation) on the day of dosing for data analysis.
(§3) 50 μL of cell viability chemiluminescent detection reagent was added to the cell plate and incubated at room temperature for 30 minutes to stabilize the luminescence signal. A multilabel plate reader was used for reading. […]

[2] = In vitro determination of whole blood to plasma concentration ratios, mouse; type: in vitro ADME; settings: CD-1 mouse whole blood, 1 μM, 37° C., 60 minutes
Procedure: (§4) (1) Fresh mouse and human whole blood (n≥3 for number of individual animals and n≥2 for number of individual humans) were collected in blood collection tubes containing EDTAK2 anticoagulant. Whole blood samples had to be mixed well and stored at 2-8° C. or on wet ice before use. They were used within 36 hours of whole blood collection. Blank whole blood was centrifuged at 2,000×g for 15 minutes at room temperature to obtain blank plasma. The plasma status was checked and hemolyzed plasma samples could not be used.
(§5) (2) The hematocrit (the percentage content of red blood cells in whole blood) was determined by centrifugation of whole blood samples in microhematocrit centrifuge tubes.
(§6) (3) Diclofenac (all species), chlorthalidone (mouse) or chloroquine (human) were used as control compounds.
(§7) (4) ACN solution containing 2% DMSO with a final concentration of 1 μM of the test compound was added to blank whole blood samples, and three parallel treatments were performed. The final content of the organic phase in the system should not exceed 0.5% (the content of DMSO should not exceed 0.1%). A certain volume of the drug-containing whole blood sample was pipetted to the sample receiving plate (three replicates), an equal volume of blank plasma was added, and mixed well to obtain the T0 sample.
(§8) (5) The whole blood sample containing the test compound was incubated at 37° C. with shaking for 60 minutes.
(§9) (6) After the end of incubation, a certain volume of whole blood samples containing the drug was pipetted to the sample receiving plate (three replicates) as T60-whole blood samples.
(§10) (7) The remaining whole blood samples were centrifuged at 2,000×g for 15 minutes in a 37° C. centrifuge to obtain plasma samples. A certain volume of plasma was pipetted to the sample receiving plate (three replicates) as T60-plasma samples.
(§11) (8) During sample treatment, all samples were equilibrated with the matrix (i.e., blank whole blood or blank plasma of the same volume was added) and mixed well.
(§12) (9) 1-fold volume of pure water was added to the equilibrated sample, and then a certain volume of stop solution containing internal standard compound was added to terminate the reaction.
(§13) (10) The analytes and control compounds in the samples were determined by liquid chromatography-tandem mass spectrometry (LC-MS/MS) method. The ratio of analyte peak area to internal standard peak area was used to represent the concentration in the sample.
(§14) See Table 7 for the experimental results. Wherein KB/P represents the concentration ratio of the compound in whole blood and plasma. KE/P represents the concentration ratio of the compound in red blood cells and plasma, and recovery (%) represents the recovery of the compound in whole blood.

[3] = In vitro determination of whole blood to plasma concentration ratios, human; type: in vitro ADME; settings: 1 μM, 37° C., 60 minutes
Procedure: as §4, §5, §6, §7, §8, §9, §10, §11, §12, §13, §14

PSN-1 cell line = assay: In vitro cell proliferation experiment (5 days), PSN-1; type: cell-based; settings: PSN-1, 5 days; read-out: Inhibitory Activity IC50
Procedure: as §1, §2, §3

LOVO cells = assay: In vitro cell proliferation experiment (5 days), LOVO; type: cell-based; settings: read-out: Inhibitory Activity IC50
Procedure: as §1, §2, §3

Row | Structure (SMILES) | AUC0-last ([1]; i.v. 1 mg/kg) [µM·h] | Cl ([1]; i.v. 1 mg/kg) [mL/min/kg] | T1/2 ([1]; i.v. 1 mg/kg) [h] | Vd ([1]; i.v. 1 mg/kg) [L/kg] | F(%) ([1]; p.o. 5 mg/kg) | AUC0-last ([1]; p.o. 5 mg/kg) [µM·h] | Cmax ([1]; p.o. 5 mg/kg) [nM] | T1/2 ([1]; p.o. 5 mg/kg) [h] | TMax ([1]; p.o. 5 mg/kg) [h] | IC50 (RKN cell line) [nM] | KB/P (concentration ratio of the compound in whole blood and plasma) [2] | KE/P (concentration ratio of the compound in red blood cells and plasma) [2] | Recovery (%) of the compound in whole blood [2] [%] | KB/P (concentration ratio of the compound in whole blood and plasma) [3] | KE/P (concentration ratio of the compound in red blood cells and plasma) [3] | Recovery (%) of the compound in whole blood [3] [%] | IC50 (PSN-1 cell line) [nM] | IC50 (LOVO cells) [nM]
1 | CCn1c(-c2cc(N3CCN(C)CC3)cnc2C(C)OC)c2c3cc(ccc31)-c1csc(n1)CC(NC(=O)C1CC1C)C(=O)N1NC(C(=O)OCC(C)(C)C2)C2CC1C2 (single isomer, unassigned) [Compound 7A] | 4.712 | 4.2 | 10.3 | 3.0 | 33.2 | 7.632 | 618 | 12.0 | 1.0 | 7.5 | 5.1 | 8.1 | 97.3 | 2.6 | 5.2 | 102.6 | 10.5 | 5.9
2 | CCn1c(-c2cc(N3CCN(C)CC3)cnc2C(C)OC)c2c3cc(ccc31)-c1csc(n1)CC(NC(=O)C1C(C)C1C)C(=O)N1NC(C(=O)OCC(C)(C)C2)C2CC1C2 (single isomer, unassigned) [Compound 6A] | 7.91 | 1.9 | 24.5 | 3.8 | 22 | 8.72 | 472 | 22.4 | 1.5 | 4.5 | 5.3 | 9.4 | 101.5 | 3.5 | 6.5 | 96.4 | 5.3 | 2.8
